Source: US11458126B2, “DHODH inhibitor for use in treating hematologic cancers” (PTC THERAPEUTICS, INC., priority 2017, dated 2022)

Experiments:
[1] = biological target: DHODH (Homo sapiens, UniProt Q02127); assay: Purified rhDHODH enzymatic assay; format: biochemical; parameters: full length purified recombinant human DHODH or mitochondria isolated from K562 cells were used as enzyme sources; settings: compared with activity in hematologic cancer cells and other DHODH inhibitors
From the text: Low pyrimidine pool levels may affect certain translation factor(s) or mechanisms required for the non-canonical protein synthesis of stress-regulated mRNAs. […] EIF1A is an isoform that controls translation start codon recognition. Low uridine levels may also affect the mRNA substrate directly: depletion of pyrimidine nucleotides in cancer cells can cause a starvation-like stress response leading to changes in methylation and pseudouridylation of mRNA modifications.
In Vitro DHODH Activity Assays. The chromogen reduction assay was carried out as previously reported. DHODH activity was determined in the presence of compounds or vehicle control using the standard colorimetric DHODH continuous assay in which the oxidation of dihydroorotic acid (DHO) and subsequent reduction of ubiquinone is coupled with and measured by monitoring the reduction of 2,6-dichlorophenolindophenol (DCPIP). Briefly, full length purified recombinant human DHODH or mitochondria isolated from K562 cells were used as enzyme sources to test compound inhibition of DHODH activity. […] The DCIP reduction was monitored by measuring the absorbance at OD610 nm on a BioTek Power Wave XS2 and the enzyme reaction velocity was derived for each reaction using the GENS software.

[2] = tested on: MOML-13 acute myeloid leukemia (AML) cells; assay: In vitro differentiation, CD14 and CD11b staining, FACS; format: cell-based, human; settings: 100 nM, 72 hours, vs DMSO, anti-CD14 and CD11b (FIG. 8)
From the text: The side-effects associated with these DHODH inhibitors are believed to be due to off-target activities such as kinase inhibition [21; 22]. […] The antiviral compound GSK983 was recently reported as a DHODH inhibitor [23]. […] FACS analysis was done on FACSCalibur (FIG. 8).

Chain of DHODH (Q02127 whole entry, canonical isoform): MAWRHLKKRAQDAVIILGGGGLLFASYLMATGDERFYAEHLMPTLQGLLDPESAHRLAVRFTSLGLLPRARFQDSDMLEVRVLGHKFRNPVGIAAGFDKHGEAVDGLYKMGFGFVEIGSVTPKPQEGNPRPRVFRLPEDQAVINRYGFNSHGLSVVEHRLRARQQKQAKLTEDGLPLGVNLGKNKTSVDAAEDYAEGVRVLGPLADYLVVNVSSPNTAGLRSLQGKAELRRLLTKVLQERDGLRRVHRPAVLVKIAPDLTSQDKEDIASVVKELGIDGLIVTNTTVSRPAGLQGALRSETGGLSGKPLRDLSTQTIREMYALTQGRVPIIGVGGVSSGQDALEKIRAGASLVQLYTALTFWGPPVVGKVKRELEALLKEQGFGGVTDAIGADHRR

Structure (SMILES): COc1ccc([C@H]2c3[nH]c4ccc(Cl)cc4c3CCN2C(=O)Oc2ccc(Cl)cc2)cc1 [Cpd 1, 4-chlorophenyl (S)-6-chloro-1-(4-methoxyphenyl)-1,3,4,9-tetrahydro-2H-pyrido[3,4-b]indole-2-carboxylate]
- inhibition of DHODH functional activity in purified rhDHODH enzymatic assays [1]: less inhibition of DHODH functional activity
- in vitro differentiation [2]: induces in vitro differentiation
